In US11807873B2, “Conversion of S-lignin compounds to useful intermediates” (Alliance for Sustainable Energy, LLC, priority 2020, dated 2023):

How the values were obtained:
[1] = target: T1, PcaHG (PCA 3,4-dioxygenase) (Pseudomonas putida, UniProt P00436+P00437); assay: PcaHG steady-state kinetics, oxygraph and spectrophotometric assays; type: biochemical, P. putida KT2440
T1 construct: poly-histidine tag with TEV protease site (N, cleaved yes); made in house; host or cells: E. coli BL-21 λ(DE3)
T1 sequence (P00437 1-239): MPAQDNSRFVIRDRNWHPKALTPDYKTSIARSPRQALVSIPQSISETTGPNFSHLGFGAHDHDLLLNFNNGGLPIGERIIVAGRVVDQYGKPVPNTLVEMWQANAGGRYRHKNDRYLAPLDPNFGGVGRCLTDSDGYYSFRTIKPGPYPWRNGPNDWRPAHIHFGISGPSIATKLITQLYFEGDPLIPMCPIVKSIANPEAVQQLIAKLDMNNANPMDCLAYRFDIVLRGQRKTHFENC
T1 sequence (P00436 2-201 limits assumed): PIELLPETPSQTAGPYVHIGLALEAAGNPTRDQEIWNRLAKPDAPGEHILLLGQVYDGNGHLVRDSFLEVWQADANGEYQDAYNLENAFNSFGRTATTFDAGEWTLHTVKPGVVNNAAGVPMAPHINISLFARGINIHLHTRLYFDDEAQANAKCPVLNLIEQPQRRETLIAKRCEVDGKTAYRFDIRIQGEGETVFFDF
Method: (§4) Steady-state kinetic analyses: Kinetic assays were performed by monitoring the consumption of O2 using a Clark-type polarographic O2 electrode OXYG1 (Hansatech) connected to a circulating water bath. Assays with the exception of GalA were performed in 1 mL of air-saturated 40 mM HEPES, 80 mM NaCl (I=0.1 M, pH 7.5) at 25° C. GalA assays were performed in 40 mM MOPS, 80 mM NaCl (I=0.1 M, pH 7.0) at 30° C. The electrode was calibrated daily according to the manufacturer's instructions using air-saturated buffer and water depleted of 02 via addition of sodium hydrosulfite. Stock solutions were prepared fresh daily. The background rate of O2-consumption was recorded prior to initiating the reaction and was subtracted from the measured reaction rate. Steady-state kinetic parameters were evaluated by fitting the Michaelis-Menten equation to the data using the least-squares fitting of LEONORA.
(§5) Stock solutions of the substrates were made in dimethylsulfoxide (DMSO). The final concentration of DMSO in the assay solutions was <1% (v/v). […] The reaction was initiated by adding 0.1 μM PcaHG.

[2] = target: GalA (gallate 3,4-dioxygenase) (Pseudomonas putida, UniProt Q88JX5); assay: GalA inactivation kinetic analyses during turnover; type: biochemical
From the text: (§1) GalA preparations had 0.5 equivalents of Fe per mol GalA. GalA cleaved GA with 3-fold higher specificity (˜9×10^5 s^−1 M^−1, see Table 3, FIG. 20) than previously reported. The partition ratio for GA was ˜1900 based on 02 consumption for given amount of GalA (see Table 3, Equation 1). […] Because high concentrations of GalA were needed to detect 3MGA-cleavage activity, cell lysates were used to investigate the inactivation of GalA by 3MGA. Importantly, the inactivation of GalA by GA was similar for the purified enzyme in E. coli lysate (j3^app˜3×10^−2 s^−1, Table 3, FIG. 21). The apparent rate constant of inactivation of GalA by 3MGA was less than 50% higher than for GA (see Table 3).
Inactivation kinetic analyses: GalA inactivation assays were performed by monitoring consumption of 02 using OXYG1 as described in Steady-state kinetic analyses. […] To obtain soluble E. coli lysate containing GalA, 50 mL of culture was suspended in ˜900 μL of 50 mM HEPPS, pH 8.0, 100 mM NaCl. The resuspension was pipetted into a 1.5 mL screw cap tube containing ˜100 μL of 0.1 mm silica sand. Cell were lysed using a Bead Beater rotor (MP Biomedical). Cellular debris and sand were removed by centrifugation. The clarified was removed to a micro centrifuge tube and kept on ice until use.
(§2) The amount of GalA added to the assay was such that the enzyme was completely inactivated before 10% of either the catecholic substrate or 02 was consumed in the reaction mixture. The partition ratio was calculated using Equation 1 shown above.
(§3) The apparent apparent rate constant of inactivation during catalytic turnover in air-saturated buffer, j3^app, was determined by fitting Equation 2 to reaction progress curves where St is the substrate concentration at time t. st=(s0−s∞)e^−j^3^app^t+s∞ Equation 2

[3] = target: T2, VanAB (vanillate O-demethylase) (Pseudomonas putida, UniProt Q88GI6); assay: VanAB coupling of O-demethylation to O2 consumption (HPLC-based assay); type: biochemical, P. putida KT2440; conditions: quenched after ~100 μM O2 consumed; for Coupling Substrate/O2: ratio of aromatic substrate consumed:O2 consumed; for Coupling Product/O2: ratio of product produced:O2 consumed
T2 sequence (Q88GI6 entry or part of it): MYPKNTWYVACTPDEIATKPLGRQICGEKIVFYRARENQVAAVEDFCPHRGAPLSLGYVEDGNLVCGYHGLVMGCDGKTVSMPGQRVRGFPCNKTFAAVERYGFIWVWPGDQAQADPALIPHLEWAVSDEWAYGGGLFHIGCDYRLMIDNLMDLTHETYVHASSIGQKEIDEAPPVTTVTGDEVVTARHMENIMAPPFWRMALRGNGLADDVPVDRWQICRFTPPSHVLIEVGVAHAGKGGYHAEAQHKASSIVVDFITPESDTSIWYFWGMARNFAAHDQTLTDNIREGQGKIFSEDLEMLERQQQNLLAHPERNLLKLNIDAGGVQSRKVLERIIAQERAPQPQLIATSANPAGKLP
T2 sequence (Q88GI5 entry or part of it, further chain): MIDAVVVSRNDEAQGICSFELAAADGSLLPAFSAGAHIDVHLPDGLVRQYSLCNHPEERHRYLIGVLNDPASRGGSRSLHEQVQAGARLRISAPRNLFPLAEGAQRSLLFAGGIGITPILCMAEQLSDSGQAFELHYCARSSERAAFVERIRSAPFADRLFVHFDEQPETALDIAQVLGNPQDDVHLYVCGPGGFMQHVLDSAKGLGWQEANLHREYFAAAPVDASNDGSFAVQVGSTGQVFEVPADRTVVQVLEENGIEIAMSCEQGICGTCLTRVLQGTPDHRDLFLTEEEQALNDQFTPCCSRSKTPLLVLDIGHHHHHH
Method: The ability of VanAB to catalyze the O-demethylation of VA, SA, and 3MGA was evaluated first. Using an HPLC-based assay, the enzyme transformed VA, SA, and 3MGA to PCA, 3MGA, and GA, respectively (see FIG. 14). When reactions were quenched after ˜100 μM of O2 was consumed, the amounts of substrate consumed, and product detected, were equal to the amount of O2 consumed within error (see Table 3). […] However, in the absence of VanA, VanB consumed NADH and O2 to produce H2O2 in the presence of SA. This adventitious consumption of NADH and O2 was not observed in the presence of VA or 3MGA. Further, in reactions containing 2 μM VanB, 1 μM VanA completely outcompeted the reaction of SA with VanB.
HPLC characterization of transformation products and flavin content: Oxygenase turnover and VanB flavin content were evaluated using a Waters 2695 Separation HPLC module (Milford, MA) equipped with a Waters 2996 photodiode array detector. VanAB reactions contained ˜1 μM VanA, ˜1 μM VanB and 200 μM substrate in air-saturated HEPES (I=0.1 M, pH 7.5). Reactions were incubated for 30 min at 25° C., quenched with glacial acetic acid (final concentration 10% (v/v)), then centrifuged and filtered (0.2 μm) to remove protein. Substrates and products were resolved using a 250×4.6 mm Luna 5 m C18(2) column (Phenomenex, Torrance, CA) and a linear gradient of 0.1% formic acid and methanol. Compound amounts were assessed using integrated peak areas at 260 nm and standard curves for each compound.

[4] = target: T2, VanAB (vanillate O-demethylase); assay: VanAB steady-state kinetics, O2 consumption (oxygraph)
Method: In evaluating the parameters for VA, 0.4 μM VanA was used to ensure steady-state conditions at low concentrations of VA.
as §4
For VanAB, the standard reaction contained 1 μM VanA, 2 μM Ht-VanB, and 400 μM NADH. […] Stock solutions of the substrates were made in dimethylsulfoxide (DMSO). The final concentration of DMSO in the assay solutions was <1% (v/v). For PcaHG, the standard reaction contained 250 μM PCA. The reaction was initiated by adding 0.1 μM PcaHG. […] The reaction was initiated by adding 0.05 μM GalA.

[5] = system: wild-type P. putida KT2440; assay: Toxicity effects on growth of wild-type strain (OD600); type: cell-based, Pseudomonas putida KT2440; conditions: M9 minimal media, 20 mM glucose
Method: Error bars represent the absolute value of two biological replicates.
Bacterial strains, media, and cultivations: Pseudomonas putida KT2440 (ATCC® 47054) was utilized as the wild-type and base strain for all further engineering. Gene deletion, insertion, or replacements in P. putida KT2440 were performed using the antibiotic/sacB counter-selection method as previously described. Diagnostic colony PCR was performed with MyTaq® HS Red Mix (Bioline, USA) to confirm gene deletion, insertion, or replacement (see Table 3 and Table 8). M9 minimal medium was prepared as 6.78 g/L Na2HPO4, 3 g/L KH2PO4, 0.5 g/L NaCl, 1 g/L NH4Cl, 2 mM MgSO4, 100 μM CaCl2), and 18 μM FeSO4, pH 7.0. […] Sodium formate (Sigma, USA) was used to prepare formate stocks in water. Stocks of syringaldehyde were made in 2% (v/v) DMSO. Glucose at 1 M concentration (Sigma, USA) was prepared in water. All carbon sources were 0.2 μm filtered prior to media addition. KT2440 strains were revived from glycerol stocks in LB medium overnight at 30° C. prior to washing in M9 minimal medium. Washed cells were inoculated to an OD600 of 0.1 in 25 mL of M9 minimal media supplemented with the specified carbon/energy source in 125 mL baffled flasks and incubated at 30° C., 225 rpm in biological duplicate or triplicate, as indicated. In the case of 3MGA, the culture volume was reduced to 10 mL in 50 mL baffled flasks due to the cost of this substrate. […] In the case of formate feeding, cultivations were subsequently pH adjusted to pH 7.1-7.3 with formic acid, which provided an additional 0.13-1.75 mmol of formate. To measure cell growth and quantify metabolites, cultures were sampled by removing 1 mL, measuring OD600 of a 1:10 or 1:100 dilution, centrifuging to pellet the cells, and blanking with the OD600 of the supernatant to account for darkening of some cultures due to oxidation of intermediates.
In vivo reactions: Wild-type P. putida KT2440 and engineered strains were cultivated overnight in LB medium and centrifuged. […] Flasks were inoculated to an OD600 of 0.1 and incubated at 30° C., 225 rpm. Cultures were sampled periodically by removing 1 mL that was used to measure the OD600 as well as metabolite analysis (see below). Shake flask experiments were performed in triplicate. In the case of 3-MGA, the culture was downscaled to 10 mL in 50 mL baffled flasks and performed in duplicate.

[6] = substrate: O=C(O)c1cc(O)c(O)c(O)c1; assay: GalA steady-state kinetics, O2 consumption (oxygraph); type: biochemical, P. putida KT2440; conditions: other: air-saturated 40 mM MOPS, 80 mM NaCl (I = 0.1M, pH 7.0), 30° C
Method: Steady-state kinetic analyses: Kinetic assays were performed by monitoring the consumption of O2 using a Clark-type polarographic O2 electrode OXYG1 (Hansatech) connected to a circulating water bath. […] GalA assays were performed in 40 mM MOPS, 80 mM NaCl (I=0.1 M, pH 7.0) at 30° C. The electrode was calibrated daily according to the manufacturer's instructions using air-saturated buffer and water depleted of 02 via addition of sodium hydrosulfite. Stock solutions were prepared fresh daily. The background rate of O2-consumption was recorded prior to initiating the reaction and was subtracted from the measured reaction rate. Steady-state kinetic parameters were evaluated by fitting the Michaelis-Menten equation to the data using the least-squares fitting of LEONORA.
Stock solutions of the substrates were made in dimethylsulfoxide (DMSO). The final concentration of DMSO in the assay solutions was <1% (v/v). […] The reaction was initiated by adding 0.05 μM GalA.

[7] = substrate: COc1cc(C(=O)O)cc(O)c1O; assay: GalA inactivation kinetic analyses during turnover; type: biochemical; conditions: other: calculated from j3^app and partition ratio, MOPS (I = 0.1M, pH 7.0), 30° C
From the text: as §1
Inactivation kinetic analyses: GalA inactivation assays were performed by monitoring consumption of 02 using OXYG1 as described in Steady-state kinetic analyses. […]
as §2, §3

[8] = substrate: O=C(O)c1cc(O)c(O)c(O)c1; assay: PcaHG steady-state kinetics, oxygraph and spectrophotometric assays; type: biochemical, P. putida KT2440; conditions: other: air-saturated HEPES (I = 0.1M), pH 7.5, 25° C
Method: as §4, §5

Question: What does the source list for `COc1cc(C(=O)O)cc(O)c1O` [3MGA, 3-O-methylgallate]?
Answer: cleavage by PcaHG ([1]; oxygraph and spectrophotometric assays): did not detectably cleave; apparent rate constant of inactivation of GalA, higher than for GA [2]: less than 50%; kcat^app relative to that for GA [2]: ~0.025%; partition ratio relative to that for GA [2]: 0.2%; j3^app (apparent rate constant of inactivation during turnover) ([2]; air-saturated 40 mM MOPS, 80 mM NaCl (I = 0.1M, pH 7.0), 30° C): 3.8 ± 0.3 ×10^−2 s^−1; Partition Ratio ([2]; calculated from the O2 consumption for a given amount of GalA): 3.3 ± 0.6; Coupling Substrate/O2 [3]: 1.0 ± 0.1 mol:mol; Coupling Product/O2 [3]: 1.1 ± 0.2 mol:mol; apparent specificity of VanAB relative to that for VA ([4]; O-demethylation): ~1%

Question: Which “specific activity of purified PcaHG” value [1] does the source give for `O=C(O)c1ccc(O)c(O)c1` [PCA, protocatechuate] here?
Answer: Its value is 3.8 U/mg.

Question: What about the “kcat^app” value ([1]; air-saturated HEPES (I = 0.1M), pH 7.5, 25° C) of the same molecule?
Answer: The value was 0.95 ± 0.03 s⁻¹.

Question: And the Km ([1]; air-saturated HEPES (I = 0.1M), pH 7.5, 25° C, read-out: KM^app)?
Answer: The Km was 33 ± 2 µM.

Question: For `COc1cc(C(=O)O)cc(OC)c1O` [SA, syringate], which “toxicity to P. putida KT2440 compared with VA” value [5] is on record?
Answer: The value was “more toxic”.

Question: What about the “growth at 120 mM substrate” value [5] of the same molecule?
Answer: The value was “able to grow”.

Question: Which “toxicity to P. putida KT2440 compared with VA” value [5] does the source give for `COc1cc(C=O)cc(OC)c1O` [SAL, syringaldehyde] here?
Answer: The value was “more toxic”.

Question: `COc1cc(C(=O)O)ccc1O` [VA, vanillate] was tested. Which “growth at 120 mM substrate” value [5] did it give?
Answer: Its value is “not”.

Question: And the “Coupling Substrate/O2” value [3]?
Answer: Its value is 1.3 ± 0.2 mol:mol.

Question: And the “Coupling Product/O2” value [3]?
Answer: The value was 1.1 ± 0.1 mol:mol.

Question: What about the “apparent specificity of VanAB” value ([4]; 0.4 μM VanA) of the same molecule?
Answer: The value was about 200000 s⁻¹ M⁻¹.

B1: GalA (gallate 3,4-dioxygenase) (Pseudomonas putida KT2440) (protein)
chain: MARIIGGLAVSHTPTIGFAVDHDKQEEAAWAPIFESFEPIRTWLQQRQPDVLFYIFNDHITSFFFDHYSAFTLGVDEQYGVADEGGNPRDLPPVGGHAALSRHIGQSLMADEFDMSFFRDKPLDHGFFSPMSALLPCDESWPVQIVPLQVGVLQLPIPTARRCYKLGQALRRAIESYPEDLKVAIVATGGVSHQVHGERCGFNNPEWDAQFLDLLVNDPQRLTEMTLAEYATLGGMEGAEVITWLIMRGTLSANVERKHQSYYLPSMTGIATLLLENRDQALPAPVNERHRQHMQHQLAGAEQLEGTYPYTLERSAKGYRLNKFLHRMIEPQWRQRFLSEPEALYREAGLSEEESDLLRRRDWRGLIHYGVIFFVLEKLGAVLGVSNLDIYAAMRGQSIEDFMKTRNQQVRYSVAGKAPN
Question: With B1 as the molecule, how does the Km [6] read?
Answer: The Km was 59 ± 5 µM.

Question: What about the kcat [6] of the same molecule?
Answer: Its kcat is 52 ± 4 s⁻¹.

Question: What about the kcat/Km [6] of the same molecule?
Answer: The kcat/Km was 90 ± 10 ×10^4 s^−1 · M^−1.

Question: What about the kcat [7] of the same molecule?
Answer: The kcat was 0.012 ± 0.002^d s^−1.

B2: PcaHG (PCA 3,4-dioxygenase) (Pseudomonas putida) (protein)
chain 1: MPAQDNSRFVIRDRNWHPKALTPDYKTSIARSPRQALVSIPQSISETTGPNFSHLGFGAHDHDLLLNFNNGGLPIGERIIVAGRVVDQYGKPVPNTLVEMWQANAGGRYRHKNDRYLAPLDPNFGGVGRCLTDSDGYYSFRTIKPGPYPWRNGPNDWRPAHIHFGISGPSIATKLITQLYFEGDPLIPMCPIVKSIANPEAVQQLIAKLDMNNANPMDCLAYRFDIVLRGQRKTHFENC
chain 2: PIELLPETPSQTAGPYVHIGLALEAAGNPTRDQEIWNRLAKPDAPGEHILLLGQVYDGNGHLVRDSFLEVWQADANGEYQDAYNLENAFNSFGRTATTFDAGEWTLHTVKPGVVNNAAGVPMAPHINISLFARGINIHLHTRLYFDDEAQANAKCPVLNLIEQPQRRETLIAKRCEVDGKTAYRFDIRIQGEGETVFFDF
notes: poly-histidine tag with TEV protease site (N, cleaved yes); made in house; host or cells: E. coli BL-21 λ(DE3)
Question: What does the source list for B2?
Answer: Km [8]: 15 ± 2 µM; kcat [8]: 0.0675 ± 0.0003 s⁻¹; kcat/Km [8]: 0.51 ± 0.06 ×10^4 s^−1 · M^−1
